Measurements: patent US11415579B2, “Assay for measuring a rate of reaction between a target and a ligand candidate” (Imperial College Innovations Ltd., priority 2016, dated 2022)

Tests used:
Cdk2(S276C) (C177A) = biological target: T1, Cdk2(S276C) (C177A) (Homo sapiens, UniProt P24941, C177A/S276C); test: Kinetic thiol consumption assay with Cdk2 mutant S276C; format: binding; parameters: key to Rate enhancement, Cdk2 S276C: rate constant with Cdk2 ÷ rate constant with model thiol (fold); settings: additional mutation C177A; for Rate constant with Cdk2 S276C: Protein: Cdk2, cysteine position S276C, in h^-1
T1 construct: poly-histidine; made in house; host or cells: E. coli
Outline: (§1)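 Read-out is fluorescence at 380/470 nm, taken after 1 h at room temperature and normalized to a DMSO/thiol-only control over time. Thiol (5 μM Cdk2 mutant or model thiol) was in degassed pH 8 phosphate buffer with 2% v/v TCEP beads. Acrylamide rate constants for Cdk2 were divided by those with model thiol.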

Cdk2(S181C) (C177A) = biological target: T2, Cdk2(S181C) (C177A) (Homo sapiens, UniProt P24941, C177A/S181C); test: Kinetic thiol consumption assay with Cdk2 mutant S181C; format: binding; parameters: key to Rate enhancement, Cdk2 S181C: rate constant with Cdk2 ÷ rate constant with model thiol (fold); settings: additional mutation C177A; for Rate constant with Cdk2 S181C: Protein: Cdk2, cysteine position S181C, in h^-1
T2 construct: poly-histidine; made in house; host or cells: E. coli
Outline: as §1

Cdk2[C177A, F80C, K278C] = biological target: T3, Cdk2[C177A, F80C, K278C] (Homo sapiens, UniProt P24941, C177A/F80C/K278C); test: Kinetic thiol consumption assay with mutant Cdk2 as model thiol; format: binding; parameters: unit not given here; settings: 500 μM ligand, 5 μM thiol, phosphate buffer pH 8
T3 construct: poly-histidine; made in house; host or cells: E. coli
Outline: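 First-order rate constants were derived by exponential-decay fitting of DMSO/thiol-normalized fluorescence (380/470 nm) over time at room temperature. Thiol was 5 μM E. coli-expressed His-tagged Cdk2 mutant C177A/F80C/K278C in degassed pH 8 phosphate buffer containing 2% v/v TCEP beads.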

Cdk2(C177A, F80C) = biological target: T4, Cdk2(C177A, F80C) (Homo sapiens, UniProt P24941, C177A/F80C); test: Kinetic thiol consumption assay with Cdk2 mutant F80C, incl. kobs versus concentration (Kd, k2); format: binding; parameters: key to Rate enhancement, Cdk2 F80C: Cdk2 rate constant divided by model-thiol rate constant; settings: additional mutation C177A; for Rate constant with Cdk2 F80C: Protein: Cdk2, cysteine position F80C, in h^-1
T4 construct: poly-histidine; made in house; host or cells: E. coli
Outline: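 His-tagged Cdk2(C177A/F80C) from E. coli or model thiol, 5 μM in degassed phosphate buffer pH 8 with TCEP beads, reacted with acrylamide ligands; fluorescence (ex/em 380/470 nm) normalized to DMSO control and fitted to first-order decay for kobs. Kd and k2 obtained from hyperbolic fit of kobs versus ligand concentration.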

Cdk2(N272C) (C177A) = biological target: T5, Cdk2(N272C) (C177A) (Homo sapiens, UniProt P24941, C177A/N272C); test: Kinetic thiol consumption assay with Cdk2 mutant N272C; format: binding; parameters: key to Rate enhancement, Cdk2 N272: rate constant with Cdk2 ÷ rate constant with model thiol (fold); settings: for Rate enhancement, Cdk2 N272: Cdk2 N272, additional mutation C177A; for Rate constant with Cdk2 N272C: Protein: Cdk2, cysteine position N272C, additional mutation C177A, in h^-1
T5 construct: poly-histidine; made in house; host or cells: E. coli
Outline: as §1

[1] = Kinetic thiol consumption assay with model thiol glutathione; format: physicochemical; parameters: Rate constant with glutathione (k(GSH)): unit not given here; settings: for Rate constant with glutathione (k(GSH)): 500 μM ligand, 5 μM thiol, phosphate buffer pH 8; for Rate constant with Glutathione: Protein: Glutathione, cysteine position NA, in h-1
Outline: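 First, 5 μM glutathione in degassed phosphate buffer (pH 8) receives immobilized TCEP beads (2% v/v). Then acrylamide is added and plates incubate 1 h at room temperature. Finally, fluorescence (380/470 nm) is normalized and fitted to first-order decay for rate constants.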

[2] = biological target: T6, human cyclin-dependent kinase 2 (Cdk2) (Homo sapiens, UniProt P24941); test: Kinetic thiol consumption assay with wild type Cdk2 (C177); format: binding; parameters: key to Rate enhancement, Cdk2 WT: k(Cdk2) divided by k(model thiol); Rate constant with Cdk2 (k(Cdk2)): unit not given here; settings: for Rate constant with Cdk2 (k(Cdk2)): 500 μM ligand, 5 μM thiol, phosphate buffer pH 8; for Rate enhancement, Cdk2 WT: no additional mutations; for Rate constant with Cdk2 WT: Protein: Cdk2, cysteine position WT, in h^-1; for k(Cdk2)/k(Cdk2_mut) rate enhancement: model thiol Cdk2[C177A, F80C, K278C]; for k(Cdk2)/k(GSH) rate enhancement: model thiol glutathione
T6 construct: poly-histidine; made in house; host or cells: E. coli
Outline: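 Thiol 5 μM (Cdk2 or model thiol), degassed phosphate buffer pH 8, TCEP beads 2% v/v. Plates incubated 1 h RT, ex/em 380/470 nm. First-order decay fit → rate constant; ratio Cdk2/model thiol = rate enhancement.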

Cdk2(H71C) (C177A) = biological target: T7, Cdk2(H71C) (C177A) (Homo sapiens, UniProt P24941, C177A/H71C); test: Kinetic thiol consumption assay with Cdk2 mutant H71C; format: binding; parameters: key to Rate enhancement, Cdk2 H71C: rate constant with Cdk2 ÷ rate constant with model thiol (fold); settings: additional mutation C177A; for Rate constant with Cdk2 H71C: Protein: Cdk2, cysteine position H71C, in h^-1
T7 construct: poly-histidine; made in house; host or cells: E. coli
Outline: as §1

Cdk2(T182C) (C177A) = biological target: T8, Cdk2(T182C) (C177A) (Homo sapiens, UniProt P24941, C177A/T182C); test: Kinetic thiol consumption assay with Cdk2 mutant T182C; format: binding; parameters: key to Rate enhancement, Cdk2 T182C: rate constant with Cdk2 ÷ rate constant with model thiol (fold); settings: additional mutation C177A; for Rate constant with Cdk2 T182C: Protein: Cdk2, cysteine position T182C, in h^-1
T8 construct: poly-histidine; made in house; host or cells: E. coli
Outline: as §1

Cdk2(R122C) (C177A) = biological target: T9, Cdk2(R122C) (C177A) (Homo sapiens, UniProt P24941, C177A/R122C); test: Kinetic thiol consumption assay with Cdk2 mutant R122C; format: binding; parameters: key to Rate enhancement, Cdk2 R122C: rate constant with Cdk2 ÷ rate constant with model thiol (fold); settings: additional mutation C177A; for Rate constant with Cdk2 R122C: Protein: Cdk2, cysteine position R122C, in h-1
T9 construct: poly-histidine; made in house; host or cells: E. coli
Outline: as §1

| SMILES | Rate enhancement, Cdk2 S276C (Cdk2(S276C) (C177A)) | Rate constant with Cdk2 S276C (Cdk2(S276C) (C177A)) | Rate enhancement, Cdk2 S181C (Cdk2(S181C) (C177A)) | Rate constant with Cdk2 S181C (Cdk2(S181C) (C177A)) | Rate constant with Cdk2[C177A, F80C, K278C] (k(Cdk2_mut)) (Cdk2[C177A, F80C, K278C]) | Rate constant with Cdk2 F80C (Cdk2(C177A, F80C)) | Rate enhancement, Cdk2 N272 (Cdk2(N272C) (C177A)) | Rate constant with Cdk2 N272C (Cdk2(N272C) (C177A)) | Rate constant with glutathione (k(GSH)) [1] | Rate constant with Glutathione [1] | Rate constant with Cdk2 (k(Cdk2)) [2] | Rate enhancement, Cdk2 WT [2] | Rate constant with Cdk2 WT [2] | k(Cdk2)/k(Cdk2_mut) rate enhancement [2] | k(Cdk2)/k(GSH) rate enhancement [2] | Rate enhancement, Cdk2 H71C (Cdk2(H71C) (C177A)) | Rate enhancement, Cdk2 T182C (Cdk2(T182C) (C177A)) | Rate constant with Cdk2 T182C (Cdk2(T182C) (C177A)) | Rate enhancement, Cdk2 R122C (Cdk2(R122C) (C177A)) | Rate constant with Cdk2 R122C (Cdk2(R122C) (C177A)) | further results |
| --- | --- | --- | --- | --- | --- | --- | --- | --- | --- | --- | --- | --- | --- | --- | --- | --- | --- | --- | --- | --- | --- |
| C=CC(=O)Nc1cccc(-c2nnnn2C2CC2)c1 [CA-057] | 1.606 | 0.04258 | 1.069 | 0.02834 | 0.09413 | 0.05671 | 2.885 | 0.07649 | 0.02585 | 0.02651 | 0.0716 | 2.701 | 0.0716 | 0.7607 | 2.77 | 1.636 | 18.51 | 0.4908 | 1.176 | 0.03118 | Rate enhancement, Cdk2 F80C (Cdk2(C177A, F80C)): 2.139; Rate constant with Cdk2 H71C (Cdk2(H71C) (C177A)): 0.04338 |
| C=CC(=O)NCCCN(C(=O)C1CCC1)C1CC1 [CA-060] | 1.112 | 0.005711 | 0.7812 | 0.004014 | 0.00223 | ~0.0004944 | 3.677 | 0.01889 | 0.00283 | 0.005138 | 0.00226 | 0.7143 | 0.00367 | 1.013 | 0.7988 | 0 | 1.619 | 0.00832 | 0.4675 | 0.002402 | – |
| C=CC(=O)N1CC(Cc2ccccc2)C1 [CA-072] | 4.036 | 0.08965 | 2.167 | 0.04813 | 0.00481 | 0.0057 | 9.388 | 0.2085 | 0.01236 | 0.02221 | 0.0241 | 1.085 | 0.0241 | 5.016 | 1.95 | 16.46 | 6.718 | 0.1492 | 0.3503 | 0.00778 | Rate enhancement, Cdk2 F80C (Cdk2(C177A, F80C)): 0.2566; Rate constant with Cdk2 H71C (Cdk2(H71C) (C177A)): 0.3655 |
